Source: patent publication US20220387604A1, “SELECTIVE DUAL HISTONE DEACETYLASE 6/8 (HDAC6/8) DEGRADERS AND METHODS OF USE THEREOF” (DANA-FARBER CANCER INSTITUTE, INC., priority 2019, published 2022)

Columns and labels:
[1] = biological target: T1, full length human HDAC8-EGFP (Homo sapiens, UniProt Q9BY41); test: HDAC8 reporter assay (HDAC8-EGFP with mCherry reporter); assay type: cell-based; conditions: 5 hour treatment, FIG. 6; hook effect at higher concentrations
T1 construct: Cells stably expressing the full length human HDAC8-EGFP with mCherry reporter; expressed in transfected cells; Cilantro2 vector (Addgene, 74450)
T1 sequence (Q9BY41 1-377): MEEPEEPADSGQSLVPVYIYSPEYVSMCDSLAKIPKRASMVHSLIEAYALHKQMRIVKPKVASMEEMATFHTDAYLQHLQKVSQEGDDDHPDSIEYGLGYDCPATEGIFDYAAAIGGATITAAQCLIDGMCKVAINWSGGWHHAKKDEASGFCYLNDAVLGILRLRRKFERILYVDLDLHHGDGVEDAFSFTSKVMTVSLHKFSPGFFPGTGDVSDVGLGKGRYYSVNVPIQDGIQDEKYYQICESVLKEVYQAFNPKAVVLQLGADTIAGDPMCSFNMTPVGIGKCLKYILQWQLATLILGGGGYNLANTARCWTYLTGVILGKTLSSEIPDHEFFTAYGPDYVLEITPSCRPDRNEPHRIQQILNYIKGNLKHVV
Method: Cells stably expressing the full length human HDAC8-EGFP with mCherry reporter in Cilantro2 vector (Addgene, 74450) were seeded at 30-50% confluency in 384-well plates with 50 μL FluoroBrite™ DMEM media (Thermo Fisher Scientific, A18967) containing 10% FBS per well a day before compound treatment. Compounds were dispensed using a D300e Digital Dispenser (HP), normalized to 0.5% DMSO, and incubated with cells for 5 hours. The assay plate was imaged immediately using an Acumen® High Content Imager (TTP Labtech) with 488 nm and 561 nm lasers in […] per well format. The resulting images were analyzed using CellProfiler™.
A series of image analysis steps (‘image analysis pipeline’) was constructed. First, the red and green channels were aligned and cropped to target the middle of each well (to avoid analysis of heavily clumped cells at the edges), and a background illumination function was calculated for both red and green channels of each well individually and subtracted to correct for illumination variations across the 384-well plate from various sources of error. An additional step was then applied to the green channel to suppress the analysis of large auto fluorescent artifacts and enhance the analysis of cell specific fluorescence by way of selecting for objects under a given size, 30 A.U., and with a given shape, speckles. mCherry-positive cells were then identified in the red channel filtering for objects between 8-60 pixels in diameter and using intensity to distinguish between clumped objects. The green channel was then segmented into GFP positive and negative areas and objects were labeled as GFP positive if at least 40% of it overlapped with a GFP positive area. The fraction of GFP-positive cells/mCherry-positive cells in each well was then calculated, and the green and red images were rescaled for visualization. The values for the concentrations that lead to a 50% degradation (DC50) were calculated using the nonlinear fit variable slope model in GraphPad Prism software.

HDAC6/8 = test: Quantitative proteomics of cellular protein abundance in Kelly cells: HDAC6/8; assay type: cell-based, human; conditions: moderated t-test, scatter plots FIG. 2A-2C, 4A-4B
Method: Lysis buffer (8 M Urea, 50 mM NaCl, 50 mM 4-(2hydroxyethyl)-1-piperazineethanesulfonic acid (EPPS) pH 8.5, protease and phosphatase inhibitors from Roche®) were added to the cell pellets and homogenized by 20 passes through a 21 gauge (1.25 in. long) needle to achieve a cell lysate with a protein concentration between 1-4 mg mL^−1. A micro-BCA assay (Pierce™) was used to determine the final protein concentration in the cell lysate. 200 μg of protein for each sample were reduced and alkylated as described in Donovan et al., Elife 7:e38430 (2018).
Proteins were precipitated using methanol/chloroform. Four volumes of methanol were added to the cell lysate, followed by one volume of chloroform, and finally three volumes of water. The mixture was vortexed and centrifuged to separate the chloroform phase from the aqueous phase. The precipitated protein was washed with three volumes of methanol, centrifuged and the resulting washed precipitated protein was allowed to air dry. The precipitated protein was resuspended in 4 M Urea, 50 mM HEPES pH 7.4, followed by dilution to 1 M urea with the addition of 200 mM EPPS, pH 8. Proteins were first digested with LysC (1:50; enzyme:protein) for 12 hours at room temperature. The LysC digestion was diluted to 0.5 M Urea with 200 mM EPPS pH 8 followed by digestion with trypsin (1:50; enzyme:protein) for 6 hours at 37° C. Tandem mass tag (TMT) reagents (Thermo Fisher Scientific) were dissolved in anhydrous acetonitrile (ACN) according to manufacturer's instructions.
Anhydrous ACN was added to each peptide sample to a final concentration of 30% v/v, and labeling was induced with the addition of TMT reagent to each sample at a ratio of 1:4 peptide:TMT label. The 10-plex labeling reactions were performed for 1.5 hours at room temperature and the reaction quenched by the addition of hydroxylamine to a final concentration of 0.3% for 15 minutes at room temperature. The sample channels were combined at a 1:1:1:1:1:1:1:1:1:1:1 ratio, desalted using C18 solid phase extraction cartridges (Waters®) and analyzed by LC-MS for channel ratio comparison. Samples were then combined using the adjusted volumes determined in the channel ratio analysis and dried down in a speed vacuum. The combined sample was then resuspended in 1% formic acid, and acidified (pH 2-3) before being subjected to desalting with C18 SPE (Sep-Pak®, Waters®). Samples were then offline fractionated into 96 fractions by high pH reverse-phase HPLC (Agilent® LC1260) through an aeris peptide xb-c18 column (Phenomenex®) with mobile phase A containing 5% acetonitrile and 10 mM NH4HCO3 in LC-MS grade H2O, and mobile phase B containing 90% acetonitrile and 10 mM NH4HCO3 in LC-MS grade H2O (both pH 8.0). The 96 resulting fractions were then pooled in a non-continuous manner into 24 fractions and these fractions were used for subsequent mass spectrometry analysis.
Data were collected using an Orbitrap Fusion™ Lumos™ mass spectrometer (Thermo Fisher Scientific, San Jose, Calif., USA) coupled with a Proxeon EASY-nLC™ 1200 LC pump (Thermo Fisher Scientific). Peptides were separated on an EasySpray™ ES803 75 μm inner diameter microcapillary column (ThermoFisher Scientific).
Each analysis used an MS3-based TMT method as described in McAlister et al., Anal. Chem. 86(14):7150-7158 (2014). The data were acquired using a mass range of m/z 340-1350, resolution 120,000, automatic gain control (AGC) target 1×10^6, maximum injection time 100 ms, dynamic exclusion of 120 seconds for the peptide measurements in the Orbitrap Fusion™ Lumos™ mass spectrometer. Data dependent MS2 spectra were acquired in the ion trap with a normalized collision energy (NCE) set at 55%, AGC target set to 1.5×10^5 and a maximum injection time of 150 ms. […]

Structure (SMILES): O=C(/C=C/c1ccc(CN(CCOCCOCCOCCNc2cccc3c2C(=O)N(C2CCC(=O)NC2=O)C3=O)CCc2c[nH]c3ccccc23)cc1)NO (stereo not drawn) [Compound 4, (E)-3-(4-(2-(2-(1H-indol-3-yl)ethyl)-13-((2-(2,6-dioxopiperidin-3-yl)-1,3-dioxoisoindolin-4-yl)amino)-5,8,11-trioxa-2-azatridecyl)phenyl)-N-hydroxyacrylamide]
- degradation of GFP tagged HDAC8 in the reporter cell lines [1]: degradation of GFP tagged HDAC8

Structure (SMILES): O=C(/C=C/c1ccc(CN(CCOCCOCCOCCOCCNc2cccc3c2C(=O)N(C2CCC(=O)NC2=O)C3=O)CCc2c[nH]c3ccccc23)cc1)NO (stereo not drawn) [Compound 5, (E)-3-(4-(2-(2-(1H-indol-3-yl)ethyl)-16-((2-(2,6-dioxopiperidin-3-yl)-1,3-dioxoisoindolin-4-yl)amino)-5,8,11,14-tetraoxa-2-azahexadecyl)phenyl)-N-hydroxyacrylamide]
- degradation of GFP tagged HDAC8 in the reporter cell lines [1]: degradation of GFP tagged HDAC8
- reduction in HDAC6/8 protein levels compared to DMSO treated cells (HDAC6/8): significant reduction
